The test system of the assay is subjects with chronic hepatitis C virus (HCV) associated thrombocytopenia. Description: placebo controlled, double blind, dose-ranging study of Compound A before and with IFN and ribavirin. Format: in vivo, human. The conditions noted are these: for Median platelet count at Week 4: 4 weeks. As for the experimental part:
The safety, tolerability, efficacy and pharmacokinetics of repeat oral daily doses of 3′-{N′-[1-(3,4-Dimethylphenyl)-3-methyl-5-oxo-1,5-dihydropyrazol-4-ylidene]hydrazino}-2′-hydroxybiphenyl-3-carboxylic acid bis-(monoethanolamine);
(hereinafter Compound A) in subjects with chronic hepatitis C virus (HCV) associated thrombocytopenia, which precluded initiation of treatment with pegylated interferon (IFN) and ribavirin is assessed in this study.
HCV infected subjects with compensated cirrhosis and platelet counts between 20-70,000/ul were randomly allocated to 1 of 4 treatment groups (30, 50, 75 mg eltrombopag or placebo). During Part 1, Compound A was administered in tablet form once daily for 4 weeks. Subjects who achieved platelet counts of >70,000/ul at the end of Part 1 were eligible to enter Part 2, during which subjects initiated therapy with IFN and ribavirin and continued their randomized treatment for a maximum of 12 weeks. A follow-up visit was performed 4 weeks after last dose of study drug. The primary endpoint was defined as an increase in platelet count to 100,000/ul at Week 4.

The mark [1] stands for this setting: range over the Compound A groups (30, 50, 75 mg).

As for `CC1=NN(c2ccc(C)c(C)c2)C(=O)C1=NNc1cccc(-c2cccc(C(=O)O)c2)c1O` [Compound A, 3′-{N′-[1-(3,4-Dimethylphenyl)-3-methyl-5-oxo-1,5-dihydropyrazol-4-ylidene]hydrazino}-2′-hydroxybiphenyl-3-carboxylic acid bis-(monoethanolamine)], the “Median platelet count at Week 4” value (30 mg once daily oral) was determined as 136500 µL⁻¹, the “Median platelet count at Week 4” value (50 mg once daily oral) is 213500 µL⁻¹ and the “Median platelet count at Week 4” value (75 mg once daily oral) amounted to 209000 µL⁻¹. In addition, the “platelet counts at Day 28” value (all treatment groups (30, 50, 75 mg)) is “increased platelet counts”. Under setting [1], the “subjects completing 12 weeks of antiviral therapy” value is reported as 36-65%. For the same compound, under setting [1], the “subjects who completed 12 weeks of antiviral therapy” value is listed as 5-15 subjects.

These data come from patent publication US20120020923A1, “Method of treating viral diseases with combinations of TPO receptor agonist and anti-viral agents” (priority 2006, published 2012).
